Laboratory results taken from ChEMBL document CHEMBL5465560, “Selectivity Literature for EUbOPEN Chemogenomic Library” (2024).

Assays:
[1] = biological target: DNA (cytosine-5)-methyltransferase 3B (Homo sapiens) (UniProt Q9UBC3); details: at 10 µM
[2] = biological target: T1, Mitogen-activated protein kinase kinase kinase 13 (Homo sapiens) (UniProt O43283); test: Selectivity interaction (KinomeScan (DiscoverX)) EUB0000229b MAP3K13; details: at 10 µM
T1 sequence (whole entry): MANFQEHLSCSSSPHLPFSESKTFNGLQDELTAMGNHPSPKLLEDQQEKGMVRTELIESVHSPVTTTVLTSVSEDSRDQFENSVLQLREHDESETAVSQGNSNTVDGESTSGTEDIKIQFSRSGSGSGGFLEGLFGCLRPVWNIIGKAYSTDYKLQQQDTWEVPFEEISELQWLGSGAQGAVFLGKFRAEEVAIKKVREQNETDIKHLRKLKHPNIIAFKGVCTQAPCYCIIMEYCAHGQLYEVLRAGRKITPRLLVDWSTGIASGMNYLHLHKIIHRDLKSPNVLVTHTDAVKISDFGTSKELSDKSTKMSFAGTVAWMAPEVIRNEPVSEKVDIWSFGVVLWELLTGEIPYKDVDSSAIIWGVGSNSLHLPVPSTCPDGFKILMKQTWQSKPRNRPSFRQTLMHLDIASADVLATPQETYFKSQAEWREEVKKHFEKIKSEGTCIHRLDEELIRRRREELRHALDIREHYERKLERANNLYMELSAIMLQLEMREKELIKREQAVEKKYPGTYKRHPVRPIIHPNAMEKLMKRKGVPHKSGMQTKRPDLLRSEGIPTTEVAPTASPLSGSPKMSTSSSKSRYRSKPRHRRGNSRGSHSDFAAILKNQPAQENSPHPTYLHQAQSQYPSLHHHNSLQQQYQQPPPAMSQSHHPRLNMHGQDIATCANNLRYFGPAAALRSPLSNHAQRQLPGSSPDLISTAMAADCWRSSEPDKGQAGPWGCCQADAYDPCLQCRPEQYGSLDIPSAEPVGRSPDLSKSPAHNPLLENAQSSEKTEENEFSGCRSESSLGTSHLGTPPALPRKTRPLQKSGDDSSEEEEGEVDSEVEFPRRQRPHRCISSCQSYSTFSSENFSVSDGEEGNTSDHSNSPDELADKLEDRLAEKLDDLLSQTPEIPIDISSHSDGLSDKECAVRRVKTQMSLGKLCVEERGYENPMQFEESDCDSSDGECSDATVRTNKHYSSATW

[3] = biological target: T2, Serine/threonine-protein kinase STK11 (Homo sapiens) (UniProt Q15831); test: Selectivity interaction (KinomeScan (DiscoverX)) EUB0000229b STK11; details: at 10 µM
T2 sequence (whole entry): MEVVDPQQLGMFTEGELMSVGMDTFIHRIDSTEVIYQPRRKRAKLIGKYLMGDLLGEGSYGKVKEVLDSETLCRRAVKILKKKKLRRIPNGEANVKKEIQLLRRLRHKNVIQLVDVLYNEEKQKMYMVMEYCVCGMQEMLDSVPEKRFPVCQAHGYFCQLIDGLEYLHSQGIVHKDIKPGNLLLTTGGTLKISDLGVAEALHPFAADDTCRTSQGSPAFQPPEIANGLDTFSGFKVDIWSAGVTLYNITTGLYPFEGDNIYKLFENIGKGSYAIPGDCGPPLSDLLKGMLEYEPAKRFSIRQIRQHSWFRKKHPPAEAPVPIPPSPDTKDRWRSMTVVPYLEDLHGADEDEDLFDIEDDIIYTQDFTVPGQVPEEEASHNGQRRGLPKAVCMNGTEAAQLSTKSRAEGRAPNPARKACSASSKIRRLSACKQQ

[4] = biological target: Cyclin-dependent kinase 1 (Homo sapiens) (UniProt P06493); test: Selectivity interaction (Kinase panel (KiNativ target engagement assay in Jurkat cells)) EUB0001635a CDK1; type: cell-based; details: Selectivity number of off-targets 0.0, Selectivity number of targets 233.0, Source Knowledge https://www.sciencedirect.com/science/article/pii/S2451945619300674?via%3Dihub, at 1 µM
Cyclin-dependent kinase 1 (Homo sapiens), sequence (P06493 whole entry, looked up, the tested form may be a part): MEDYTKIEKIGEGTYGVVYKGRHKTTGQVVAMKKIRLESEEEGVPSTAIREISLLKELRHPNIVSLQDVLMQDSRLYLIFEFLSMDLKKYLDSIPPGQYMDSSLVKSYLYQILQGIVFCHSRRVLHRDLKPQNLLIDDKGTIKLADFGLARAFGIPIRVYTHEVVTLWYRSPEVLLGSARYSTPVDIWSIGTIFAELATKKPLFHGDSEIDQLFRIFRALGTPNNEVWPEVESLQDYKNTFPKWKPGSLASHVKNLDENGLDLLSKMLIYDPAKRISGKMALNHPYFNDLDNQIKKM

[5] = biological target: DNA (cytosine-5)-methyltransferase 3B (Homo sapiens) (UniProt Q9UBC3); test: Selectivity interaction (PWWP, WD40, and Tudor domain panel (DSLS measurements, literature)) EUB0000270b DNMT3B
[6] = biological target: Ribosomal protein S6 kinase alpha-1 (Homo sapiens, UniProt Q15418); test: Selectivity interaction (ActivX KiNativ screen (kinase selectivity in THP-1 cell lysates)) EUB0000639a RPS6KA1; type: subcellular; details: lysate, at 0.01 µM
Ribosomal protein S6 kinase alpha-1, sequence (Q15418 whole entry): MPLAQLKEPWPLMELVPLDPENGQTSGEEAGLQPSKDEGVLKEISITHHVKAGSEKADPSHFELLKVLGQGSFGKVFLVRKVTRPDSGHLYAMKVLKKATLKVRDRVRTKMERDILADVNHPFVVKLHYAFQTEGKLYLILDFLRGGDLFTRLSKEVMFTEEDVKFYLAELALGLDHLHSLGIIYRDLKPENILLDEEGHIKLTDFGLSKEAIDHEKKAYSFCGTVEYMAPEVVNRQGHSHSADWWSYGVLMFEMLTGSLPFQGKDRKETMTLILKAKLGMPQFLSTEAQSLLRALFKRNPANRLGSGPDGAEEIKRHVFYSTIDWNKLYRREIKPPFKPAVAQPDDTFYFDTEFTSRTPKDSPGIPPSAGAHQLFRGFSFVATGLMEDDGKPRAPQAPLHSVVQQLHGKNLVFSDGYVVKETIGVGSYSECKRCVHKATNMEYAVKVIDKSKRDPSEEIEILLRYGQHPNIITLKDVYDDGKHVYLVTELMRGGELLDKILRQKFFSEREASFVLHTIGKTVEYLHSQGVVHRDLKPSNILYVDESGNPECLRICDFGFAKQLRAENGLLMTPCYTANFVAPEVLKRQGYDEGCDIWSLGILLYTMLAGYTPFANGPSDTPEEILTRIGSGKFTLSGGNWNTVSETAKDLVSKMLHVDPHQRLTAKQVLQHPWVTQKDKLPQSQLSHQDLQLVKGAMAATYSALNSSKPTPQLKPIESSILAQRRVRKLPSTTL

[7] = biological target: T3, Dual specificity mitogen-activated protein kinase kinase 5 (Homo sapiens) (UniProt Q13163); test: Selectivity interaction (KinomeScan (DiscoverX)) EUB0000595a MAP2K5; details: at 10 µM
T3 sequence (whole entry): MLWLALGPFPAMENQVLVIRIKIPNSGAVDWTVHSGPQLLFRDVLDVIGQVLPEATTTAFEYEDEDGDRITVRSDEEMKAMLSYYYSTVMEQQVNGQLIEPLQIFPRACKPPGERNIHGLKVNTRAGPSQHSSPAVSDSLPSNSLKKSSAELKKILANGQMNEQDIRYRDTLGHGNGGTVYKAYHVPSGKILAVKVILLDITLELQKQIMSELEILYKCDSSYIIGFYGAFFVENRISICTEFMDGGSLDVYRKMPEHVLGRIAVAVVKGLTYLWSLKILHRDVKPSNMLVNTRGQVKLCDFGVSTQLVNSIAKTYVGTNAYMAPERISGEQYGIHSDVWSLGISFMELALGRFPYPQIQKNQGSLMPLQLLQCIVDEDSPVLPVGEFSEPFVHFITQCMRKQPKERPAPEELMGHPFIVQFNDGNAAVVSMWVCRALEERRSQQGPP

[8] = biological target: Ribosomal protein S6 kinase beta-1 (Homo sapiens, UniProt P23443); test: Selectivity interaction (Kinase screening (Upstate/Millipore)) EUB0000604a RPS6KB1
Ribosomal protein S6 kinase beta-1, sequence (P23443 whole entry, looked up): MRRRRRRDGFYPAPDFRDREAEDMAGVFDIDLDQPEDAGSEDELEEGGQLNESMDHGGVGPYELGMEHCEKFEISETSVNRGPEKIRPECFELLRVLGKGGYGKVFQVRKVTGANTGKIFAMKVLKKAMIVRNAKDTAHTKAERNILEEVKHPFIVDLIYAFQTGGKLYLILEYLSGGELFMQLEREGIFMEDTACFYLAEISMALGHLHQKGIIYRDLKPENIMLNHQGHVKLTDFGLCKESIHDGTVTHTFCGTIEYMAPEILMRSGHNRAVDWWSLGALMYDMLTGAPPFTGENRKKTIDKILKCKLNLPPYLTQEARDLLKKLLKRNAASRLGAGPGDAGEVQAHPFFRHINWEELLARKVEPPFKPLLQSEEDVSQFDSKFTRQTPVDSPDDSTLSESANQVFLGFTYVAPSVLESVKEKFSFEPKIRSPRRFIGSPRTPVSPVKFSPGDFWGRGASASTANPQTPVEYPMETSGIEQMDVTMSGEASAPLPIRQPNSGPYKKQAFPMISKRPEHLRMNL

[9] = biological target: Serine/threonine-protein kinase PAK 2 (Homo sapiens) (UniProt Q13177); test: Selectivity interaction (Ambit KINOMEscan and KiNATiv profiling in Jurkat cells) EUB0000090b PAK2; type: cell-based; details: at 1 µM
[10] = biological target: Fibroblast growth factor receptor 4 (Homo sapiens, UniProt P22455); test: Selectivity interaction (KinomeScan (DiscoverX)) EUB0000045b FGFR4
Fibroblast growth factor receptor 4, sequence (P22455 22-802 limits assumed): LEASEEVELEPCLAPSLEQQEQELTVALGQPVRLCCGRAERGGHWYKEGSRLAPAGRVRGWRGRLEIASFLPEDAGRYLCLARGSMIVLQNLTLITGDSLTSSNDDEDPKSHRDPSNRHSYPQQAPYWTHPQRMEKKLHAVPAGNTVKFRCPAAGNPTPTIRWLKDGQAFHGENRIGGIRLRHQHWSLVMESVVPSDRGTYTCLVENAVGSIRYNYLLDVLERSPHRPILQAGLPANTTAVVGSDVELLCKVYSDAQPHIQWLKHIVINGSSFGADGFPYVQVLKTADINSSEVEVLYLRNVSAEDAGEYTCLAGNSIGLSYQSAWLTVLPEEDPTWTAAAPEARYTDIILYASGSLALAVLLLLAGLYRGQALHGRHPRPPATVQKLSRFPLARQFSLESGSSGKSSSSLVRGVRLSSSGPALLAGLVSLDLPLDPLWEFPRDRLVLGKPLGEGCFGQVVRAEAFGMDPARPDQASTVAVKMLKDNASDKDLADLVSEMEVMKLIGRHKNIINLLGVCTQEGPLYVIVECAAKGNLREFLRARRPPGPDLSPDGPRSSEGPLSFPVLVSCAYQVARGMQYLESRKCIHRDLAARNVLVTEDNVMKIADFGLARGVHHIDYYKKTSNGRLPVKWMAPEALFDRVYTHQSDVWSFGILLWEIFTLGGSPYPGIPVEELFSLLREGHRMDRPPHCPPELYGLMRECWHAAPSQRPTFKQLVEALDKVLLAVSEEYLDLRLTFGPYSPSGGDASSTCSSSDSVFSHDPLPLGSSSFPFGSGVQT

[11] = biological target: Cyclin-dependent kinase 3 (Homo sapiens) (UniProt Q00526); details: at 10 µM
Cyclin-dependent kinase 3 (Homo sapiens), sequence (Q00526 whole entry, looked up, canonical isoform): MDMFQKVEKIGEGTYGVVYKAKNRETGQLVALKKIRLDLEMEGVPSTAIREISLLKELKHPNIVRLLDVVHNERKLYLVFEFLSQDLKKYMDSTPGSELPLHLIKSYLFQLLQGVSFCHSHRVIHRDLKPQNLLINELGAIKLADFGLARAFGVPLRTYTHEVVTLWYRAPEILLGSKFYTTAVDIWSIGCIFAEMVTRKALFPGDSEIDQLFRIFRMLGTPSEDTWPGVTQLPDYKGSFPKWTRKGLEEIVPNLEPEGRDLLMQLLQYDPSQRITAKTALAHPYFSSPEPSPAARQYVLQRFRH

[12] = biological target: Casein kinase I isoform epsilon (Homo sapiens, UniProt P49674); test: Selectivity interaction (KinomeScan (DiscoverX)) EUB0000655a CSNK1E; details: at 10 µM
Casein kinase I isoform epsilon, sequence (P49674 whole entry, looked up, canonical isoform): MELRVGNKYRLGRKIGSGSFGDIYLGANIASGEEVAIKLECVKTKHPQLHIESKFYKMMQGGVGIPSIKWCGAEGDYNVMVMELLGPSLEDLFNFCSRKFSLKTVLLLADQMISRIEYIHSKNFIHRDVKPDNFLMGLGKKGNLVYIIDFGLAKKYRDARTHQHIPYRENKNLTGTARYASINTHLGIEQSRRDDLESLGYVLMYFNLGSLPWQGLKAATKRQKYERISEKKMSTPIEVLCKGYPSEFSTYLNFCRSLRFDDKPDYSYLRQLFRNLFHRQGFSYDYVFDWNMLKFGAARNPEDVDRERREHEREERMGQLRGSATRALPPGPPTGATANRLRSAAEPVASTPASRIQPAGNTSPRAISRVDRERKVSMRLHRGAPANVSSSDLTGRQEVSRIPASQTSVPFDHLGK

Ephrin type-A receptor 4 = Ephrin type-A receptor 4 (Homo sapiens, UniProt P54764); test: Selectivity interaction (KinomeScan (DiscoverX)) EUB0000607a EPHA4; details: at 10 µM
Ephrin type-A receptor 4, sequence (P54764 whole entry): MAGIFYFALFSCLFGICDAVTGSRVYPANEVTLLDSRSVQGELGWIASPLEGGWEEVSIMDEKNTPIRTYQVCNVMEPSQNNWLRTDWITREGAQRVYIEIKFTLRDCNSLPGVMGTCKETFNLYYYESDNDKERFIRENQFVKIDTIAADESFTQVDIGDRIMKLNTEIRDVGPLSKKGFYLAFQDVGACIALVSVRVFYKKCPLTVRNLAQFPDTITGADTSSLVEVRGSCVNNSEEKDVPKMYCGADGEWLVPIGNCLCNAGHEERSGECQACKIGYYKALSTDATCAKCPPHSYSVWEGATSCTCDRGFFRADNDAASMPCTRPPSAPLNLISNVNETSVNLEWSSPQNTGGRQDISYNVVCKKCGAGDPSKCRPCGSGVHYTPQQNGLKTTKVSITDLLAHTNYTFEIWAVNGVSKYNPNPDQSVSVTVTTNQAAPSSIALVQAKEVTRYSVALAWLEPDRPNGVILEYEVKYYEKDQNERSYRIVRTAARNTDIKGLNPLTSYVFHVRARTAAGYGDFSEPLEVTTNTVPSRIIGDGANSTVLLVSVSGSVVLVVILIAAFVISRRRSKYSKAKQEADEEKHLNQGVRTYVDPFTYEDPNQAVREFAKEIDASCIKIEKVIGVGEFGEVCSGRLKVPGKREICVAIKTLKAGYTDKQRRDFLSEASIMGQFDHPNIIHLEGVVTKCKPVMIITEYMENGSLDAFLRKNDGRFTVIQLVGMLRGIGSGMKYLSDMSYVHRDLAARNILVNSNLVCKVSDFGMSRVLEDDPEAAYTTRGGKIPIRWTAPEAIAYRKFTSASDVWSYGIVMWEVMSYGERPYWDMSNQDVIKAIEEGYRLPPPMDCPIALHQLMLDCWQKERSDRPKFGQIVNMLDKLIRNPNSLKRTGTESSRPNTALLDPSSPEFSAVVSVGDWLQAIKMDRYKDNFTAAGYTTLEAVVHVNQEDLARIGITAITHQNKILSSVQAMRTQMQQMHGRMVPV

[13] = biological target: BDNF/NT-3 growth factors receptor (Homo sapiens) (UniProt Q16620); test: Selectivity interaction (KinomeScan (DiscoverX)) EUB0000607a NTRK2; details: at 10 µM
BDNF/NT-3 growth factors receptor (Homo sapiens), sequence (Q16620 32-822 limits assumed): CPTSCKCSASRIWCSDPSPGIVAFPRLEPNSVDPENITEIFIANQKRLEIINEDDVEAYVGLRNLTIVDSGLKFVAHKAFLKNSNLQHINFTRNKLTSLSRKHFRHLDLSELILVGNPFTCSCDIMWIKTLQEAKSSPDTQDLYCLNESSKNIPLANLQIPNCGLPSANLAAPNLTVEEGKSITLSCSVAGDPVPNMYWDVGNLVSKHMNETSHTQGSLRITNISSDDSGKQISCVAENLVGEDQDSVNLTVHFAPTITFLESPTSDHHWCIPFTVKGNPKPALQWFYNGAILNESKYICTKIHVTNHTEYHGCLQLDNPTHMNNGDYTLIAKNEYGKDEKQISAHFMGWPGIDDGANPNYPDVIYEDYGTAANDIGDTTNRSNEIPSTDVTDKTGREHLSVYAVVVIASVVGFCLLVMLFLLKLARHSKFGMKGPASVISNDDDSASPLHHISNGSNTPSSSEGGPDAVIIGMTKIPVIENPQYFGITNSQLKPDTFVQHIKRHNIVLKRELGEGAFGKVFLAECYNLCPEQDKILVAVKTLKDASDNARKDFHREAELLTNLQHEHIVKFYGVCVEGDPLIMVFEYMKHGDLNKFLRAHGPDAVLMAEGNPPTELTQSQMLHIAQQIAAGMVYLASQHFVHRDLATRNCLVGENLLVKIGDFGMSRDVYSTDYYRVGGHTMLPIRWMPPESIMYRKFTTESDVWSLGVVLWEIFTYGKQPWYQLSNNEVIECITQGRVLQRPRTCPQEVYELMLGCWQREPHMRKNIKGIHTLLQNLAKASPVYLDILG

Which % activity [1] does the source give for CNCCN1CCC(c2cc(CN(C)C(=O)c3cccc(Oc4ccccc4)c3)ccn2)CC1 here?
The % activity was greater than 90%.

How did the % binding [2] turn out when COc1cc(N(C)c2ccnc3ccc(C(F)(F)F)cc23)cc(OC)c1OC was run?
Its % binding is 100%.

And the % binding [3]?
Its % binding is 77%.

For C=CC(=O)Nc1ccc(C(=O)Nc2[nH]nc3c2CN(C(=O)N[C@H](CN(C)C)c2ccccc2)C3(C)C)cc1, which % of engagement [4] is on record?
The % of engagement was -3.1%.

With Cc1cc(CN)cc(C)c1-c1ncn(C)c1-c1cncn1C as the molecule, how does the dTagg [5] read?
The dTagg was 0 K.

Which % of inhibition [6] does the source give for CC[C@@H]1[C@H](F)C(=O)N[C@@H]1COc1nccc2cc(C(N)=O)c(OC)cc12 [ZIMLOVISERTIB] here?
Its % of inhibition is 3.6%.

COCC(=O)NC/C=C/c1ccc2ncnc(Nc3ccc(Oc4ccc(C)nc4)c(C)c3)c2c1 [CP-724714] was tested. Which % of control [7] did it give?
The % of control was 0.2%.

With Cc1cnc(Nc2ccc(F)cc2Cl)nc1-c1c[nH]c(C(=O)N[C@H](CO)c2cccc(Cl)c2)c1 as the molecule, how does the % of inhibition [8] read?
The % of inhibition was 18%.

For CN(C)C/C=C/C(=O)Nc1ccc(C(=O)N2CCCC(Nc3ncc(Cl)c(-c4c[nH]c5ccccc45)n3)C2)cc1 (stereo not given), which % of control [9] is on record?
Its % of control is 84%.

For C=CC(=O)Nc1cc(-n2c(=O)ccc3cnc4ccc(-c5ccc(NS(C)(=O)=O)cc5)cc4c32)ccc1C, which % of control ([10]; at 1 µM) is on record?
Its % of control is 100%.

And the % of control ([10]; at 10 µM)?
Its % of control is 84%.

Cc1cc([C@@H](C)Nc2ccccc2C(=O)O)c2nc(N3CCOCC3)cc(=O)n2c1 [AZD-6482] was tested. Which % of control [11] did it give?
The % of control was 100%.

CN(C)CCOc1ccc(-c2nc(-c3ccncc3)c(-c3ccc4c(c3)CC/C4=N\O)[nH]2)cc1 was tested. Which % of control [12] did it give?
Its % of control is 14%.

CNC(=O)Nc1ccc(-c2nc(N3CC4CCC(C3)O4)c3cnn(C4CCC5(CC4)OCCO5)c3n2)cc1 was tested. Which % of control (Ephrin type-A receptor 4) did it give?
Its % of control is 100%.

And the % of control [13]?
Its % of control is 100%.
